In patent US8283373B2, “Inhibitors of cytosolic phospholipase A2” (Pfizer Inc., priority 2005, dated 2012):

Columns and labels:
[1] = molecular target: T1, cPLA2α (Homo sapiens, UniProt P47712); experiment: GLU Micelle Assay; type: biochemical
T1 sequence (P47712 1-749): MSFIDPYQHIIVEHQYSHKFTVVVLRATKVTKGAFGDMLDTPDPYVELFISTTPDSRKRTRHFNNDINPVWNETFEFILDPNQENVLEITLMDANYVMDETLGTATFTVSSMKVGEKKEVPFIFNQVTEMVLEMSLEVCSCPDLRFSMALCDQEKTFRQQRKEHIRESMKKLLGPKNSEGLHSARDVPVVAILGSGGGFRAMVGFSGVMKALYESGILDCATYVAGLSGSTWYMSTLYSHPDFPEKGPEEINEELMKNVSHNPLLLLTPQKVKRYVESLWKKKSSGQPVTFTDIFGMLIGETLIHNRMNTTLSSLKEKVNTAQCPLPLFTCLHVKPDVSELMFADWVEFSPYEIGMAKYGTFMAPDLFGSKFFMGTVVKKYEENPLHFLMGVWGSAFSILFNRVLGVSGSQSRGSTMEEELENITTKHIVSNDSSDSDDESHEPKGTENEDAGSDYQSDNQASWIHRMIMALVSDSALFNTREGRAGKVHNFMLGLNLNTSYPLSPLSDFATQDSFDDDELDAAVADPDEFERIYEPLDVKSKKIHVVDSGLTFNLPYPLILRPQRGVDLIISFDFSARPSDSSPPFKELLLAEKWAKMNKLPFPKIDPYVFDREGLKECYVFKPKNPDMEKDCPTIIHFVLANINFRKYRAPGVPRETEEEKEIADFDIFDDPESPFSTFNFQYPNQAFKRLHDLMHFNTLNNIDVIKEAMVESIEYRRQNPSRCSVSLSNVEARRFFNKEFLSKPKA
Protocol: The assay was carried in a 96-well format using a fluorescent plate reader with a 355 nm excitation filter and a 460 nm emission filter (Lab Systems Fluoroscan II, Helsinki, Finland). The assay buffer contained 940 μM Triton X-100, 50 mM Hepes pH 7.4, 0.3 mM EDTA, 1 mM CaCl2 and 300 mM KCl. DTPC (1,2-O-tetradecyl-sn-glycero-3-phosphocholine, Avanti) at a final concentration of 120 μM was added the day of the experiment and GLU (7-Hydroxycoumarinyl-γ-linolenate, Biomol Research Lab, Inc.) at a final concentration of 90 μM was added immediately prior to each assay.
Compounds (10 μL) dissolved in DMSO were placed in duplicate wells of a black 96-well plate. Wells corresponding to the positive and negative controls contained DMSO without inhibitors. Just prior to the experiment, 200 μL assay buffer containing 90 μM GLU and 120 μM DTPC was added to all wells in the assay plate. Assay buffer (50 μL) was added to the negative, and 50 μL cPLA2α solution ([…] in assay buffer) was added to all other wells to initiate the reaction. The final concentration of enzyme was 1 μg/ml. The content of each well was mixed gently during the addition of the enzyme, and the plate was rapidly transferred to the fluorescent plate reader. The increase in fluorescence was read every 4 min for 84 min. The slope of the resulting line was determined and the inhibition was calculated using the equation below: Percent Inhibition=[1−(slope with inhibitor−slope negative control)/(slope positive control−slope negative control)]×100 Rat Whole Blood Assay

[2] = test system: TXB2; experiment: Rat Whole Blood Assay (A23187-stimulated TXB2); type: cell-based; conditions: A23187 5 μM
Protocol: Fresh blood was collected in heparinized tubes by cardiac puncture of male Sprague-Dawley rats. Aliquots of blood (0.6 mL) were incubated with either 6 μL solvent (DMSO), or 6 μL of test compounds at various concentrations for 15 minutes at 37° C. This was followed by incubation of the blood with 6 μL of calcium ionophore, A23187 (Sigma C-7522) diluted in DMSO for 10 min at 37° C. The final concentration of A23187 was 5 μM. DMSO (6 μL) was added in the unstimulated controls. The reactions were stopped by mixing 60 μL cold EDTA to give a final concentration of 20 mM. The blood was centrifuged at 6,500 rpm for 10 min on a microcentrifuge to obtain plasma. A 70 μL aliquot of plasma was mixed with 400 μL cold methanol for protein precipitation. After incubation at −80° C. for 30 min, the supernatant was obtained by centrifuging at 6,500 rpm for 10 min, and was assayed for TXB2 according to the manufacturer's procedure (Assay Designs, Inc.'s ELISA kit #900-002).

SMILES	IC50 [1] [nM]	IC50 ([2]; Rattus norvegicus) [nM]	IC50 [2] [nM]
COC(=O)c1ccccc1CS(=O)(=O)NCCc1c(CCCc2ccc(C(=O)O)cc2)c2cc(Cl)ccc2n1C(c1ccccc1)c1ccccc1 [Example 13, 4-(3-{5-chloro-1-(diphenylmethyl)-2-[2-({[2-(methoxycarbonyl)benzyl]sulfonyl}amino)ethyl]-1H-indol-3-yl}propyl)benzoic acid]	26	30	–
O=Cc1ccccc1CS(=O)(=O)NCCc1c(CCCc2ccc(C(=O)O)cc2)c2cc(Cl)ccc2n1C(c1ccccc1)c1ccccc1 [Example 16, 4-{3-[5-chloro-1-(diphenylmethyl)-2-(2-{[(2-formylbenzyl)sulfonyl]amino}ethyl)-1H-indol-3-yl]propyl}benzoic acid]	23	50	–
CCN(CC)Cc1ccccc1CS(=O)(=O)NCCc1c(CCCc2ccc(C(=O)O)cc2)c2cc(Cl)ccc2n1C(c1ccccc1)c1ccccc1 [Example 18, 4-{3-[5-chloro-2-{2-[({2-[(diethylamino)methyl]benzyl}sulfonyl)amino]ethyl}-1-(diphenylmethyl)-1H-indol-3-yl]propyl}benzoic acid]	25	40	–
O=C(O)c1ccc(CCCc2c(CCNS(=O)(=O)Cc3ccccc3CO)n(C(c3ccccc3)c3ccccc3)c3ccc(Cl)cc23)cc1 [Example 19, 4-(3-{5-chloro-1-(diphenylmethyl)-2-[2-({[2-(hydroxymethyl)benzyl]sulfonyl}amino)ethyl]-1H-indol-3-yl}propyl)benzoic acid]	22	30	–
CC(c1ccccc1C(F)(F)F)S(=O)(=O)NCCc1c(CCCc2ccc(C(=O)O)cc2)c2cc(Cl)ccc2n1C(c1ccccc1)c1ccccc1 (centres unmarked) [Example 23, 4-[3-(5-chloro-1-(diphenylmethyl)-2-{2-[({1-[2-(trifluoromethyl)phenyl]ethyl}sulfonyl)amino]ethyl}-1H-indol-3-yl)propyl]benzoic acid]	105	40	–
Cc1c(Cl)ccc(F)c1CS(=O)(=O)NCCc1c(CCCc2ccc(C(=O)O)cc2)c2cc(Cl)ccc2n1C(c1ccccc1)c1ccccc1 [Example 26]	22	–	30
O=C(O)c1ccc(CCCc2c(CCNS(=O)(=O)Cc3c([N+](=O)[O-])cccc3C(F)(F)F)n(C(c3ccccc3)c3ccccc3)c3ccc(Cl)cc23)cc1 [Example 27, 4-(3-{5-chloro-1-(diphenylmethyl)-2-[2-({[2-nitro-6-(trifluoromethyl)benzyl]sulfonyl}amino)ethyl]-1H-indol-3-yl}propyl)benzoic acid]	38	30	–
O=C(O)c1ccc(CCCc2c(CCNS(=O)(=O)Cc3ccccc3F)n(C(c3ccccc3)c3ccccc3)c3ccc(Cl)cc23)cc1 [Example 28, 4-{3-[5-chloro-1-(diphenylmethyl)-2-(2-{[(2-fluorobenzyl)sulfonyl]amino}ethyl)-1H-indol-3-yl]propyl}benzoic acid]	30	30	–
O=C(O)c1ccc(CCCc2c(CCNS(=O)(=O)Cc3ccccc3-c3ccncc3)n(C(c3ccccc3)c3ccccc3)c3ccc(Cl)cc23)cc1 [Example 30, 4-{3-[5-chloro-1-(diphenylmethyl)-2-(2-{[(2-pyridin-4-ylbenzyl)sulfonyl]amino}ethyl)-1H-indol-3-yl]propyl}benzoic acid]	21	60	–
Cc1noc(C)c1-c1ccccc1CS(=O)(=O)NCCc1c(CCCc2ccc(C(=O)O)cc2)c2cc(Cl)ccc2n1C(c1ccccc1)c1ccccc1 [Example 33, 4-{3-[5-chloro-2-[2-({[2-(3,5-dimethylisoxazol-4-yl)benzyl]sulfonyl}amino)ethyl]-1-(diphenylmethyl)-1H-indol-3-yl]propyl}benzoic acid]	22	20	–
CN(C)c1ccc(-c2ccccc2CS(=O)(=O)NCCc2c(CCCc3ccc(C(=O)O)cc3)c3cc(Cl)ccc3n2C(c2ccccc2)c2ccccc2)cc1 [Example 35, 4-{3-[5-chloro-2-{2-[({[4′-(dimethylamino)biphenyl-2-yl]methyl}sulfonyl)amino]ethyl}-1-(diphenylmethyl)-1H-indol-3-yl]propyl}benzoic acid]	27	50	–
O=C(O)c1ccc(CCCc2c(CCNS(=O)(=O)Cc3ccccc3-c3ccccc3OC(F)(F)F)n(C(c3ccccc3)c3ccccc3)c3ccc(Cl)cc23)cc1 [Example 36, 4-[3-(5-chloro-1-(diphenylmethyl)-2-{2-[({[2′-(trifluoromethoxy)biphenyl-2-yl]methyl}sulfonyl)amino]ethyl}-1H-indol-3-yl)propyl]benzoic acid]	31	70	–
N#Cc1ccccc1-c1ccccc1CS(=O)(=O)NCCc1c(CCCc2ccc(C(=O)O)cc2)c2cc(Cl)ccc2n1C(c1ccccc1)c1ccccc1 [Example 37, 4-{3-[5-chloro-2-[2-({[(2′-cyanobiphenyl-2-yl)methyl]sulfonyl}amino)ethyl]-1-(diphenylmethyl)-1H-indol-3-yl]propyl}benzoic acid]	25	30	–

Now from value to molecule, other results behind:

IC50 [1] [nM]	IC50 ([2]; Rattus norvegicus) [nM]	SMILES	IC50 [2] [nM]
10	20	O=C(O)c1ccc(CCCc2c(CCNS(=O)(=O)Cc3ccccc3CN3CCOCC3)n(C(c3ccccc3)c3ccccc3)c3ccc(Cl)cc23)cc1 [Example 17, 4-(3-{5-chloro-1-(diphenylmethyl)-2-[2-({[2-(morpholin-4-ylmethyl)benzyl]sulfonyl}amino)ethyl]-1H-indol-3-yl}propyl)benzoic acid]	–
21	80	CN1CCN(Cc2ccccc2CS(=O)(=O)NCCc2c(CCCc3ccc(C(=O)O)cc3)c3cc(Cl)ccc3n2C(c2ccccc2)c2ccccc2)CC1 [Example 22, 4-[3-(5-chloro-1-(diphenylmethyl)-2-{2-[({2-[(4-methylpiperazin-1-yl)methyl]benzyl}sulfonyl)amino]ethyl}-1H-indol-3-yl)propyl]benzoic acid]	–
8	30	O=C(O)c1ccc(CCCc2c(CCNS(=O)(=O)Cc3ccccc3Br)n(C(c3ccccc3)c3ccccc3)c3ccc(Cl)cc23)cc1 [Example 24, 4-{3-[2-(2-{[(2-bromobenzyl)sulfonyl]amino}ethyl)-5-chloro-1-(diphenylmethyl)-1H-indol-3-yl]propyl}benzoic acid]	–
18	50	O=C(O)c1ccc(CCCc2c(CCNS(=O)(=O)Cc3ccccc3-c3ccccc3)n(C(c3ccccc3)c3ccccc3)c3ccc(Cl)cc23)cc1 [Example 29, 4-{3-[2-(2-{[(biphenyl-2-ylmethyl)sulfonyl]amino}ethyl)-5-chloro-1-(diphenylmethyl)-1H-indol-3-yl]propyl}benzoic acid]	–
16	40	O=C(O)c1ccc(CCCc2c(CCNS(=O)(=O)Cc3ccccc3-c3cccnc3)n(C(c3ccccc3)c3ccccc3)c3ccc(Cl)cc23)cc1 [Example 31, 4-{3-[5-chloro-1-(diphenylmethyl)-2-(2-{[(2-pyridin-3-ylbenzyl)sulfonyl]amino}ethyl)-1H-indol-3-yl]propyl}benzoic acid]	–
13	50	O=C(O)c1ccc(CCCc2c(CCNS(=O)(=O)Cc3ccccc3-c3ccsc3)n(C(c3ccccc3)c3ccccc3)c3ccc(Cl)cc23)cc1 [Example 32, 4-(3-{5-chloro-1-(diphenylmethyl)-2-[2-({[2-(3-thienyl)benzyl]sulfonyl}amino)ethyl]-1H-indol-3-yl}propyl)benzoic acid]	–
